Assay results from US4261986A, “4-Halo etianic acids and derivatives thereof” (Syntex (U.S.A.) Inc., priority 1979, dated 1981).

Key:
[1] = tested on: thymus gland; conditions: rat, in vivo, sc
Procedure: The compounds to be tested for thymolytic activity including a hydrocortisone (HC) standard, were prepared in three or more concentrations by suspension in a sodium carboxymethyl-cellulose vehicle. Animals received the test materials by subcutaneous injection of 0.5 ml of the suspension on each of three successive days. Four hours following the final injection, the rats were sacrificed and the thymus gland of each animal removed and weighed. These weights are then employed to establish dose-response graphs by methods known in the art.

[2] = tested on: normal adult human subjects (vasoconstriction); assay: topical anti-inflammatory activity, modified Stoughton/McKenzie vasoconstriction assay in humans; type: in vivo
Text: The compounds of Formula (I) where R is alkyl of 1-6 carbon atoms, haloalkyl of 1-6 carbons or phenyl or benzyl optionally substituted on the phenyl ring with alkyl of 1-4 carbons, alkoxy of 1-4 carbons or halo and R^1, R^2, X^1, X^2, X^3 and X^4 are as defined in the broadest aspect of the invention are useful for the relief of inflamed conditions in mammals, and more specifically are useful for relieving inflammatory manifestations of corticosteroid responsive dermatoses. Initial approximation of anti-inflammatory activity is done by following the procedure of McKenzie, S. W. and Stoughton, R. B., "Methods for Comparing Percutaneous Absorption of Steroids" Arch Dermat, 86, (1962) or modifications thereof.
The topical anti-inflammatory activity potential for each compound was assayed using a modified Stoughton/-McKenzie vaso-constriction assay in humans, V. A. Place, et al, Arch. Dermat. 101, 531-537 (1970). Eight normal adult human subjects were treated on each forearm by topical administration with alcohol solutions containing 1×10^-5 and 1×10^-6 g/ml of each of the compounds to provide 64 total test sites for each compound in a series (32 for each concentration). […] Twenty-four hours after application, the presence of vasoconstriction is noted by visual examination, and expressed as the number of sites responding (vasoconstriction). […]

[3] = therapeutic advantage (topical potency versus systemic activity); type: in vivo; conditions: in words
Procedure: The topical anti-inflammatory activity potential for each compound was assayed using a modified Stoughton/-McKenzie vaso-constriction assay in humans, V. A. Place, et al, Arch. […]. 101, 531-537 (1970). Eight normal adult human subjects were treated on each forearm by topical administration with alcohol solutions containing 1×10^-5 and 1×10^-6 g/ml of each of the compounds to provide 64 total test sites for each compound in a series (32 for each concentration). Areas of the subjects' forearms were outlined by a rubber stamp grid coated with silicone grease, and 10 microliters are applied per 7×7 mm square site. After the preparations have dried, the areas on each forearm are covered with Saran® wrap and the margins sealed with tape. The occlusive wrap is removed after 18 hours. Twenty-four hours after application, the presence of vasoconstriction is noted by visual examination, and expressed as the number of sites responding (vasoconstriction). Fluocinolone acetonide is used as a standard. Also, the intensity of the vasoconstriction is scorred on a 0, 1, 2 scale, 2 being the most intense reaction. Both scores are used in constructing dose-response graphs according to methods set forth in an article by V. A. Place et al, infra. […]

[4] = tested on: Swiss-Webster mice; assay: LD50, single subcutaneous injection, mortality observed for 21 days; type: in vivo, mouse; conditions: six mice, 25 mg/kg subcutaneous, 21 days
Procedure: (§1) Six Swiss-Webster mice (Simonsen) each weighing about 25 grams, were injected subcutaneously with a solution of methyl 6α,9α-difluoro-11β-hydroxy-16α-methyl-3-oxo-17α-n-propionyloxyandrosta-1,4-diene 17β-thiocarboxylate in […] having a concentration of 10 ml/kg. The dosage was 25 mg/kg or about 0.625 mg/mouse. The mice were observed daily for mortality for 21 days.

[5] = as above; type: in vivo, mouse; conditions: mouse, in vivo, sc; Swiss-Webster mice, subcutaneous, 21 days observation
Procedure: as §1

Row | SMILES | systemic activity relative to HC [1] | thymolytic activity [1] | topical potency relative to FA ([2]; alcohol solutions 1×10^-5 and 1×10^-6 g/ml, fluocinolone acetonide standard) | topical potency ([2]; in words) | therapeutic advantage [3] | mortality [4] | LD50 at 504 h [5]
1 | CCC(=O)O[C@]1(C(=O)OC)[C@H](C)C[C@H]2[C@@H]3C[C@H](F)C4=C(F)C(=O)C=C[C@]4(C)[C@@]3(F)[C@@H](O)C[C@@]21C [methyl 4,6α,9α-trifluoro-11β-hydroxy-16α-methyl-3-oxo-17α-propionyloxyandrosta-1,4-diene 17β-carboxylate] | 10 times HC | slight activity in the dose range of hydrocortisone | 1-2 time FA | excellent topical potency | distinct therapeutic advantage | – | –
2 | CCC(=O)O[C@]1(C(=O)SC)[C@H](C)C[C@H]2[C@@H]3C[C@H](F)C4=CC(=O)C=C[C@]4(C)[C@@]3(F)[C@@H](O)C[C@@]21C [methyl 6α,9α-difluoro-11β-hydroxy-16α-methyl-3-oxo-17α-n-propionyloxyandrosta-1,4-diene 17β-thiocarboxylate] | – | – | – | – | – | One mouse died | > 25 mg/kg
